From patent US6552001B1, “Method breeding and feeds” (Takara Shuzo Co., Ltd., priority 1998, dated 2003) come the findings set out here.

Holding throughout (type): in vivo
The test system of data set [1] is lymphocystis disease. As to the kind of experiment: feed for bastard halibuts with lymphocystis disease cultured in sea (Example 2). Particulars: fishes without infection similarly treated. The method, then:
A feed for young bastard halibuts (average body weight: 350 g) suffered from lymphocystis disease during culturing in sea was prepared by adding 3 kg of the heat treatment product of alginic acid as described in Referential Example 1-(1) to 136 kg of the moist feed as shown in Table 2 below. The feed was given to the fishes once in two days such that the heat treatment product of alginic acid was given at 1.2 g/kg/feeding.

Data set [2] deals with gliding bacteria disease. Put plainly: young bastard halibuts with gliding bacteria disease, soaking or feed (Example 3). The settings on record: fishes without infection similarly treated. The protocol: Young bastard halibuts with gliding bacteria disease (body weight: about 4 g) cultured on land were divided into four groups. Effect of the heat treatment product of alginic acid as described in Referential Example 1-(1) on gliding bacteria disease was examined.
Control group: 2400 young bastard halibuts were fed with commercially available dry pellets (Otohime No. 4: Nisshin Flour Milling) once a day. They were bred in a 25000-l seawater tank.
Soaked group: A water tank for soaking was prepared by adding 880 g of the heat treatment product of alginic acid to 400 l of seawater and starting oxygen supply. 2375 young bastard halibuts were distributed in baskets such that several hundreds of the fishes were contained in a basket. They were soaked in the water tank for soaking for 30 minutes. After soaking, they were bred in a 25000-l seawater tank being fed with commercially available dry pellets once a day.
Group administered with the heat treatment product of alginic acid (1): 2380 young bastard halibuts were bred in a 25000-l seawater tank being fed once a day with a feed prepared by adding 500 g of the heat treatment product of alginic acid to 78 kg of a moist feed as shown in Table 3 below. […]

Data set [3] deals with lymphocystis disease. Put plainly: soaking plus feed for bastard halibuts with lymphocystis disease cultured on land (Example 1). The settings on record: fishes without lymphocystis disease (preventive). The protocol: Then, the water was replaced with seawater. A feed for diseased bastard halibuts was prepared by adding 7 kg of the heat treatment product of alginic acid to 134 kg of the moist feed as shown in Table 1 below. The feed was given to the soaked bastard halibuts twice a day such that the heat treatment product of alginic acid was given at 0.78 g/kg/day.

Data set [4] can be described thus: single oral administration to a mouse, death. The settings on record: single dosage of 100 mg/kg.
The subject of data set [5] is white-mouth disease. As to the kind of experiment: feed for tiger globefishes with white-mouth disease (Example 4). Particulars: fishes without infection similarly treated. The protocol:
A feed containing the heat treatment product of alginic acid to be given a day to 2000 tiger globefishes (average body weight: 450 g) suffered from white-mouth disease during culturing in sea was prepared upon use as follows. 1.11 kg of the heat treatment product of alginic acid as described in Referential Example 1-(1) was dissolved in water to a volume of 1.5 l. 10 kg of dry pellet feed (Otohime for globefish: Nisshin Flour Milling) was soaked with the solution. The entire feed was given to the fishes once a day such that 20 mg/kg body weight/day of cyclopentenone was given (group administered with the feed containing the heat treatment product of alginic acid).
As a control, 10 kg of the dry pellet feed (otohime for globefish: Nisshin Flour Milling) was given to 2000 tiger globefishes with white-mouth disease (average body weight: 450 g) once a day (control group)

For `O=C1C=CC(O)C1O` (centres unmarked) [cyclopentenone, 4,5-dihydroxy-2-cyclopenten-1-one], the occurrence of infection result in data set [1], in data set [2] and in data set [5] was “no occurrence of infection” throughout. Besides, the “occurrence of lymphocystis disease” value in data set [3] is on record as “no occurrence”. Besides, in data set [4], the death entry is given as “No death”.
